The source of these data is patent publication US20260158056A1, “USE OF LOW MOLECULAR WEIGHT HYALURONIC ACID FOR THE TREATMENT OF LUNG MUCOSAL INFLAMMATION” (INSTITUT NATIONAL DE LA SANTÉ ET DE LA RECHERCHE MÉDICALE, priority 2021, published 2026).

Experiment [1] has as its system mucin MUC-5B secreted by F508del/F508del CF human airway epithelial cells. In words: MUC-5B ELISA, CF airway epithelial cells cultured at the air-liquid interface (ALI). Type of experiment: cell-based. On the procedure: FIG. 8: Measurement by ELISA assay of the mucin MUC-5B secreted by F508del/F508del CF human airway epithelial cells cultured at the air-liquid interface (ALI). Airway epithelial cells were seeded in bi-compartmental chambers and cultured in liquid-liquid condition until confluence was reached. At confluence, culture medium from the upper chamber was removed to create an air-liquid interface (ALI) that will favor epithelial cell differentiation. From the ALI creation, the different treatments (15-45 kDa sodium-hyaluronic acid (HA-Na 15-45 kDa) (ARD—Pomacle—France—as prepared according to WO2004050187), 15-30 kDa sodium-hyaluronic acid (HA-Na 15-30 kDa) (Sigma Aldrich), or 30-50 kDa sodium-hyaluronic acid (HA-Na 30-50 kDa) (Sigma Aldrich)) were added at 1 mg/mL to the culture medium in the basal chamber. The culture medium was renewed three times a week. At ALI day 15 and ALI Day 25, the culture in the upper chamber was rinsed with PBS then, a small volume of fresh medium without any treatment was placed at the contact of the apical part of the epithelium. After a 4 h-period, this apical culture medium was collected and the MUC-5B content was determined by ELISA assay. n=3 different F508del/F508del CF patients. p<0.001 (***); p<0.01 (**); p<0.05 (*). ns: non-significant.
FIG. 9: Measurement by ELISA assay of the mucin MUC-5B secreted by F508del/F508del CF human airway epithelial cells cultured at the air-liquid interface (ALI). Airway epithelial cells were seeded in bi-compartmental chambers and cultured in liquid-liquid condition until confluence was reached. At confluence, culture medium from the upper chamber was removed to create an air-liquid interface (ALI) that will favor epithelial cell differentiation. From the ALI creation, the different treatments (15-45 kDa sodium-hyaluronic acid (HA-Na 15-45 kDa) (ARD—Pomacle—France—as prepared according to WO2004050187), 15-45 kDa calcium-hyaluronic acid (HA-Ca 15-45 kDa; ARD), or 15-45 kDa potassium-hyaluronic acid (HA-K 15-45 kDa; ARD) were added at 1 mg/mL to the culture medium in the basal chamber. The culture medium was renewed three times a week. At ALI day 15 and ALI Day 25, the culture in the upper chamber was rinsed with PBS then, a small volume of fresh medium without any treatment was placed at the contact of the apical part of the epithelium. After a 4 h-period, this apical culture medium was collected and the MUC-5B content was determined by ELISA assay. n=3 different F508del/F508del CF patients. p<0.001 (***); p<0.01 (**); p<0.05 (*). ns: non-significant.
FIG. 10: Measurement by ELISA assay of the mucin MUC-5B secreted by F508del/F508del CF human airway epithelial cells cultured at the air-liquid interface (ALI). Airway epithelial cells were seeded in bi-compartmental chambers and cultured in liquid-liquid condition until confluence was reached. At confluence, culture medium from the upper chamber was removed to create an air-liquid interface (ALI) that will favor epithelial cell differentiation. From the ALI creation, 15-45 kDa sodium-hyaluronic acid (HA-Na 15-45 kDa) (ARD—Pomacle—France—as prepared according to WO2004050187) was added at 2 mg/mL, 1 mg/mL or 0.5 mg/mL to the culture medium in the basal chamber. The culture medium was renewed three times a week. At ALI day 15 and ALI Day 25, the culture in the upper chamber was rinsed with PBS then, a small volume of fresh medium without any treatment was placed at the contact of the apical part of the epithelium. After a 4 h-period, this apical culture medium was collected and the MUC-5B content was determined by ELISA assay. n=3 different F508del/F508del CF patients. p<0.001 (***); p<0.01 (**); p<0.05 (*). ns: non-significant.

In experiment [2] the test system is IL-8 secreted by non-CF human airway epithelial cells. As to the kind of experiment: IL-8 ELISA, non-CF airway epithelial cells cultured at the air-liquid interface (ALI). The experiment is classed as cell-based. The settings on record: FIG. 11, 14; 1 mg/mL from ALI creation, ALI day 15, vs control condition; n=1 non-CF patient. On the procedure: FIG. 11: Measurement by ELISA assay of the pro-inflammatory chemokine IL-8 secreted by non-CF human airway epithelial cells cultured at the air-liquid interface (ALI). Airway epithelial cells were seeded in bi-compartmental chambers and cultured in liquid-liquid condition until confluence was reached. At confluence, culture medium from the upper chamber was removed to create an air-liquid interface (ALI) that will favor epithelial cell differentiation. From the ALI creation, the different treatments (15-45 kDa sodium-hyaluronic acid (HA-Na 15-45 kDa) (ARD—Pomacle—France—as prepared according to WO2004050187), 15-30 kDa sodium-hyaluronic acid (HA-Na 15-30 kDa) (Sigma Aldrich), or 30-50 kDa sodium-hyaluronic acid (HA-Na 30-50 kDa) (Sigma Aldrich)) were added at 1 mg/mL to the culture medium in the basal chamber. The culture medium was renewed three times a week. At ALI day 15, the culture medium was replaced by fresh medium without any treatment. After a 4 h-period, this culture medium was collected and the IL-8 content was determined by ELISA assay. n=1 non-CF patient. p<0.001 (***); p<0.01 (**); p<0.05 (*). ns: non-significant.
FIG. 14: Measurement by ELISA assay of the pro-inflammatory chemokine IL-8 secreted by non-CF human airway epithelial cells cultured at the air-liquid interface (ALI). Airway epithelial cells were seeded in bi-compartmental chambers and cultured in liquid-liquid condition until confluence was reached. At confluence, culture medium from the upper chamber was removed to create an air-liquid interface (ALI) that will favor epithelial cell differentiation. From the ALI creation, the different treatments (15-45 kDa sodium-hyaluronic acid (HA-Na 15-45 kDa) (ARD—Pomacle—France—as prepared according to WO2004050187), 15-45 kDa calcium-hyaluronic acid (HA-Ca 15-45 kDa; ARD) or 15-45 kDa potassium-hyaluronic acid (HA-K 15-45 kDa; ARD) were added at 1 mg/mL to the culture medium in the basal chamber. The culture medium was renewed three times a week. At ALI day 15, the culture medium was replaced by fresh medium without any treatment. After a for 4 h-period, this culture medium was collected and the IL-8 content was determined by ELISA assay. n=1 non-CF patient. p<0.001 (***); p<0.01 (**); p<0.05 (*). ns: non-significant.

Where [3] appears, read: 1 mg/mL, ALI day 15, vs control condition, n=3 CF patients.
Setting [4] is: 1 mg/mL, ALI day 25, vs control condition, n=3 CF patients.

For the substance “15-45 kDa calcium-hyaluronic acid [HA-Ca 15-45 kDa]”, the “decrease in MUC-5B secretion” value is on record as 85.5% in experiment [1] (setting [3]) and 58.8% in experiment [1] (setting [4]). In experiment [2], the “decrease in IL-8 secretion” value came to 70.5%.
Take “30-50 kDa sodium-hyaluronic acid [HA-Na 30-50 kDa]”: the “decrease in MUC-5B secretion” value in experiment [1] (setting [3]) was determined as 68.7%; in experiment [1] (setting [4]), 67.1%. For the same substance, the “decrease in IL-8 secretion” value in experiment [2] was determined as 66.6%.
For the substance “15-45 kDa sodium-hyaluronic acid [HA-Na 15-45 kDa]”, the “decrease in MUC-5B secretion” value is recorded as 37.3% in experiment [1] (setting [3]); 33.2% in experiment [1] (setting [4]); “does not have any effect” in experiment [1] (FIG. 10, 0.5 mg/mL, ALI day 15 and ALI day 25); 97.9% in experiment [1] (FIG. 10, 2 mg/mL, ALI day 15); 81.2% in experiment [1] (FIG. 10, 2 mg/mL, ALI day 25). Further, the “decrease in IL-8 secretion” value in experiment [2] is reported as 69.7%.
Consider “15-30 kDa sodium-hyaluronic acid [HA-Na 15-30 kDa]”, for which the “decrease in MUC-5B secretion” value is 14.1% in experiment [1] (setting [3]) and 17.3% in experiment [1] (setting [4]). Further, the “decrease in IL-8 secretion” value in experiment [2] amounted to 60.6%.
As for “15-45 kDa potassium-hyaluronic acid [HA-K 15-45 kDa]”, in experiment [1] (setting [3]), the “decrease in MUC-5B secretion” value amounted to 34.7%. For the same substance, in experiment [2], the “decrease in IL-8 secretion” value is on record as 57.9%.
